Data on 32 compounds can be found in patent US11865176B2, “Compositions and methods of modulating anti-tumor immunity” (Dana-Farber Cancer Institute, Inc., priority 2016, dated 2024).

The subject of the experiment is PD-1-overexpressing Jurkat cells. Description: Small molecule screen: IL2 secretion (AlphaLISA) from stimulated PD-1-overexpressing Jurkat cells. The format is cell-based, human. The settings on record: 3.3 μM compound; for Zscore_1 / Zscore_2: IL2 level, α-CD3/α-CD28/α-PD-1 beads; for Zscore_1: replicate 1; for Zscore_2: replicate 2; for Zscore_AVG: average of replicate Z scores. The procedure:
PD-1-overexpressing Jurkat cells were plated at a concentration of 100,000 cells/well in a total volume of 80 μl. […] Dynabeads conjugated to α-CD3, α-CD28, and α-PD-1 antibodies were added in 20 for a final assay volume of 100 with a final compound concentration of 3.3 μM and an 8:1 bead:cell ratio. Beads were conjugated to α-CD3/α-CD28/control IgG and added to wells containing DMSO-treated cells as a positive control, while beads conjugated to α-CD3/α-CD28/α-PD1 were added to wells containing DMSO-treated cells as a negative control. Supernatants from each well were analyzed for IL2 levels by AlphaLISA (Perkin Elmers) according to the manufacturer's protocol. Average and standard deviation values were calculated from the PD-1 controls (DMSO-treated cells stimulated with α-CD3/α-CD28/α-PD-1 beads); hits were defined as compounds scoring at least 3 standard deviations from the mean of the controls.
In addition to known negative regulators of IL-2 production (e.g. glycogen synthase kinase-3α/β (GSK3α/β) (24,25)), this screen identified cyclin-dependent kinases 4 and 6 inhibitors (CDK4/6i) as top hits (Table 1).
On the technique in general: Alpha assays give light when donor and acceptor beads are brought close together.

The compound `CCN1/C(=C/C(C)=O)Sc2ccc(OC)cc21` [Cdc2-Like Kinase Inhibitor, TG003] showed a Zscore_1 of −1.367, a Zscore_2 of −2.423 and a Zscore_AVG of −1.895.
The like results for `O=C1NCCc2[nH]c(-c3ccncc3)cc21` [Cdc7/Cdk9 Inhibitor] were, in that order, −9.816, −10.33 and −10.08.
Compound `O=C1NC(=NCc2cccs2)S/C1=C\c1ccc2ncccc2c1` [Cdk1 Inhibitor IV, RO-3306] gave a Zscore_1 of −4.188, a Zscore_2 of −2.228 and a Zscore_AVG of −3.208.
In turn, `CCn1cnc2c(Nc3cccc(Cl)c3)nc(N[C@@H]3CCCC[C@@H]3N)nc21` [Cdk1 Inhibitor, CGP74514A] displayed a Zscore_1 of 1.595, a Zscore_2 of −1.02 and a Zscore_AVG of 0.2878.
As to `O=C1Nc2ccccc2/C1=C\c1c(Cl)[nH]c2ccccc12` [Cdk1 Inhibitor], the Zscore_1 was −0.7783, the Zscore_2 is given as −0.6137 and the Zscore_AVG is −0.696.
For `Nc1nc(Nc2ccc(S(N)(=O)=O)cc2)nn1C(=S)Nc1c(F)cccc1F` [Cdk1/2 Inhibitor III], the Zscore_1 was −10.55, the Zscore_2 was −11.64 and the Zscore_AVG was −11.1.
The corresponding values for `Nc1[nH]nc2nc3ccccc3nc12` [Cdk1/5 Inhibitor] are −2.414, −4.695 and −3.555.
The like results for `COc1ccc(CNc2nc(N(CCO)CCO)nc3c2ncn3C(C)C)cc1` [Cdk2 Inhibitor III] were, in that order, −2.414, −4.745 and −3.58.
In turn, `NS(=O)(=O)c1ccc(N/N=C2\C(=O)Nc3ccc(Br)cc32)cc1` [Cdk2 Inhibitor II] registered a Zscore_1 of −0.2096, a Zscore_2 of −0.6424 and a Zscore_AVG of −0.426.
Regarding `CCN(CC)C(=O)c1ccc(Nc2nc(OCC3CCCCC3)c3[nH]cnc3n2)cc1` [Cdk2 Inhibitor IV, NU6140], the Zscore_1 is −4.843, the Zscore_2 is −6.155 and the Zscore_AVG is on record as −5.499.
As for `Cc1nc(N)sc1-c1ccnc(Nc2cccc([N+](=O)[O-])c2)n1` [Cdk2/9 Inhibitor], the Zscore_1 was −10.43, the Zscore_2 is −10.59 and the Zscore_AVG is −10.51.
The compound `COc1ccc(OC)c2c(=S)c3ccccc3[nH]c12` [Cdk4 Inhibitor II, 625987] yielded a Zscore_1 of 0.5748, a Zscore_2 of −1.274 and a Zscore_AVG of −0.3496.
`Cc1ccc(NC2=CC(=O)c3sc(C)nc3C2=O)cc1` [Cdk4 Inhibitor III] showed a Zscore_1 of −6.073, a Zscore_2 of −8.107 and a Zscore_AVG of −7.09.
For the compound `O=C1NC(=O)c2c1c1c3ccccc3[nH]c1c1[nH]c3cc(Br)ccc3c21` [Cdk4 Inhibitor], the Zscore_1 is 7.007, the Zscore_2 is given as 16.07 and the Zscore_AVG came to 11.54.
`Nc1n[nH]c(N)c1N=Nc1ccc(O)cc1` [Cdk9 Inhibitor II] yielded a Zscore_1 of −0.7951, a Zscore_2 of 0.1385 and a Zscore_AVG of −0.3283.
`CC(C)c1nn(-c2c(Cl)cccc2Cl)c2nc(Cc3ccc(OCCO)cc3)[nH]c(=O)c12` [Cdk/Crk Inhibitor] yielded a Zscore_1 of −10.43, a Zscore_2 of −11.89 and a Zscore_AVG of −11.16.
On to `COc1ccc2c(c[n+](C)c3c4cc5c(cc4ccc23)OCO5)c1OC` [Chelerythrine Chloride], for which the Zscore_1 was 0.1826, the Zscore_2 worked out at 0.07537 and the Zscore_AVG was found to be 0.129.
In the case of `NC(=O)c1ccc2nc(-c3ccc(Oc4ccc(Cl)cc4)cc3)[nH]c2c1` [Chk2 Inhibitor II], the Zscore_1 stood at 2.673, the Zscore_2 amounted to 1.942 and the Zscore_AVG was determined as 2.307.
The compound `CC(C)n1cnc2c(Nc3cccc(Cl)c3)nc(NCCO)nc21` [Compound 52] returned a Zscore_1 of −1.412, a Zscore_2 of −0.2643 and a Zscore_AVG of −0.8381.
In turn, `CCOc1cc2ncnc(Nc3cccc(Br)c3)c2cc1OCC` [Compound 56] came in with a Zscore_1 of −1.072, a Zscore_2 of −2.222 and a Zscore_AVG of −1.647.
`O=c1cc(N2CCOCC2)nc2c3ccccc3ccn12` [Compound 401] showed a Zscore_1 of 2.829, a Zscore_2 of 15.49 and a Zscore_AVG of 9.162.
In the case of `CN(C)c1ccc(/C=C2\C(=O)Nc3ccccc32)cc1` [DMBI], the Zscore_1 is −0.2169, the Zscore_2 worked out at 0.4405 and the Zscore_AVG is listed as 0.1118.
On to `CC(=O)c1ccc(N2CCOCC2)cc1O` [DNA-PK Inhibitor III], for which the Zscore_1 amounted to 5.18, the Zscore_2 was 6.23 and the Zscore_AVG is on record as 5.705.
Compound `O=c1cc(N2CCOCC2)oc2c1ccc1ccccc12` [DNA-PK Inhibitor II] displayed a Zscore_1 of 0.06496, a Zscore_2 of 0.1041 and a Zscore_AVG of 0.08452.
As for `O=C(c1ccccc1)c1ccc(N2CCOCC2)cc1O` [DNA-PK Inhibitor V], the Zscore_1 is listed as −2.22, the Zscore_2 is −4.112 and the Zscore_AVG is listed as −3.166.
For the compound `O=c1c2ccccc2[nH]c(=S)n1CCN1CCC(=C(c2ccc(F)cc2)c2ccc(F)cc2)CC1` [Diacylglycerol Kinase Inhibitor II], the Zscore_1 is on record as −0.9879, the Zscore_2 came out at 0.3398 and the Zscore_AVG is given as −0.324.
Compound `O=C(Nc1cccc(Nc2cc(Nc3cccc(C(F)(F)F)c3)ncn2)c1)C1CC1` [EGFR Inhibitor] came in with a Zscore_1 of 2.026, a Zscore_2 of 1.568 and a Zscore_AVG of 1.797.
The like results for `COc1cc2ncnc(Nc3ccc(OCc4ccccc4)cc3)c2cc1OC` [EGFR/ErbB-2 Inhibitor] were, in that order, 0.09156, 4.015 and 2.053.
`CC#CC(=O)Nc1cc2c(Nc3ccc(F)c(Cl)c3)ncnc2cn1` [EGFR/ErbB-2/ErbB-4 Inhibitor] came in with a Zscore_1 of 0.4572, a Zscore_2 of 0.3338 and a Zscore_AVG of 0.3955.
Take `Nc1[nH]nc2nnc(-c3c(-c4ccccc4)nn4ccccc34)cc12` [ERK Inhibitor II, FR180204]: the Zscore_1 is −2.073, the Zscore_2 is reported as −4.806 and the Zscore_AVG is given as −3.439.
For `O=c1[nH][nH]c2nnc(-c3c(-c4ccccc4)nn4ccccc34)cc12` [ERK Inhibitor II, Negative Control], the Zscore_1 is recorded as −1.778, the Zscore_2 was found to be 1.052 and the Zscore_AVG is listed as −0.3634.
Compound `N/C(=N\[N+](=O)[O-])N/N=C\c1ccc(-c2cccc([N+](=O)[O-])c2)o1` [ERK Inhibitor III] returned a Zscore_1 of 0.9783, a Zscore_2 of 2.555 and a Zscore_AVG of 1.767.
